Assays:
[1] = target: Insulin-like growth factor 1 receptor (Homo sapiens) (UniProt P08069); assay: Inhibition of IGF1R at 10 uM by HTRF assay
[2] = target: Insulin receptor (Homo sapiens) (UniProt P06213); assay: Inhibition of InR at 10 uM by HTRF assay
[3] = target: Fibroblast growth factor receptor 1 (Homo sapiens) (UniProt P11362); assay: Inhibition of FGFR1 at 10 uM by HTRF assay
[4] = target: Receptor-type tyrosine-protein kinase FLT3 (Homo sapiens) (UniProt P36888); assay: Inhibition of Flt3 at 10 uM by HTRF assay
[5] = target: Epidermal growth factor receptor (Homo sapiens) (UniProt P00533); assay: Inhibition of EGFR at 10 uM by HTRF assay
[6] = target: Receptor tyrosine-protein kinase erbB-2 (Homo sapiens) (UniProt P04626); assay: Inhibition of ErbB2 at 10 uM by HTRF assay
Sequence of Receptor tyrosine-protein kinase erbB-2 (Homo sapiens) (P04626 whole entry): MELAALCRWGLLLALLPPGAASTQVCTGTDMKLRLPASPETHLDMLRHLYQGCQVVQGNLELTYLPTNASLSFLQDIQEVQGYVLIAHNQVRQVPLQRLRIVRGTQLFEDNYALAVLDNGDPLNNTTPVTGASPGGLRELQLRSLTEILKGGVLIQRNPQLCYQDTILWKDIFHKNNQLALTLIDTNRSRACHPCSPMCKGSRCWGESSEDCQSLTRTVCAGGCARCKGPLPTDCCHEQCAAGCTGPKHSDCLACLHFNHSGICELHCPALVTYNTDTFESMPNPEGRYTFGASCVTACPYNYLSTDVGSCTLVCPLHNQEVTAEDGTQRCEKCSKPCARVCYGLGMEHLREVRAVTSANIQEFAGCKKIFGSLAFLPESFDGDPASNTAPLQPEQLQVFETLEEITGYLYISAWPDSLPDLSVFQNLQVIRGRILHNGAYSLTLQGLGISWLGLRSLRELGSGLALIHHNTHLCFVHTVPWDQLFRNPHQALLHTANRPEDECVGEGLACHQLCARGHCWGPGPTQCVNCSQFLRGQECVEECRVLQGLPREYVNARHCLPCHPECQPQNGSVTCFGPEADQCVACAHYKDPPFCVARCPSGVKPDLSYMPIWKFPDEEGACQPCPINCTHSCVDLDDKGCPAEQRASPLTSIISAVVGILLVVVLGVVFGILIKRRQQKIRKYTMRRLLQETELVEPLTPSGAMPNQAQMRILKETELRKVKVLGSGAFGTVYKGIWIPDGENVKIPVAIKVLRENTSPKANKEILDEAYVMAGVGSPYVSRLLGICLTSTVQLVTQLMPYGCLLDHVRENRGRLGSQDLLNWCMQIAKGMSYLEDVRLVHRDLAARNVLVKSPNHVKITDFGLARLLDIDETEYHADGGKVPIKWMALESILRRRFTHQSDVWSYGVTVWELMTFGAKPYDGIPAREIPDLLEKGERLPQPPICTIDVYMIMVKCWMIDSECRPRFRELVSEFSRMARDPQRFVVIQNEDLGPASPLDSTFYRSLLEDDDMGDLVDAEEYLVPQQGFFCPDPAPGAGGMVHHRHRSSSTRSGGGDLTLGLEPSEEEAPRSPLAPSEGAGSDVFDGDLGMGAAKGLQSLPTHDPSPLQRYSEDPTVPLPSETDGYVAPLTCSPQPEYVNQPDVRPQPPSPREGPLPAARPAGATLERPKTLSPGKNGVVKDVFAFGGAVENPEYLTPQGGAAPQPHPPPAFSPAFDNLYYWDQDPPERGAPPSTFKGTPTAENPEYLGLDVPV

[7] = target: Hepatocyte growth factor receptor (Homo sapiens) (UniProt P08581); assay: Inhibition of cMET at 10 uM by HTRF assay
[8] = target: Macrophage-stimulating protein receptor (Homo sapiens) (UniProt Q04912); assay: Inhibition of Ron at 10 uM by HTRF assay
Sequence of Macrophage-stimulating protein receptor (Homo sapiens) (Q04912 25-304 limits assumed): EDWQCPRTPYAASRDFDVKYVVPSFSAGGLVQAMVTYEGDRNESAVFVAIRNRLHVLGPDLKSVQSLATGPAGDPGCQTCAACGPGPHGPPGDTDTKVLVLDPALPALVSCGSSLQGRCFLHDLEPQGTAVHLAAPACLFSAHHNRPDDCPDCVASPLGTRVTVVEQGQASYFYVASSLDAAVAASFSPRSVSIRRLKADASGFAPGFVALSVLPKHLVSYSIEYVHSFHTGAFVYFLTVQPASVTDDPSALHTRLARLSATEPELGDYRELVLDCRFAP
Sequence of Macrophage-stimulating protein receptor (Homo sapiens) (Q04912 310-1400 limits assumed): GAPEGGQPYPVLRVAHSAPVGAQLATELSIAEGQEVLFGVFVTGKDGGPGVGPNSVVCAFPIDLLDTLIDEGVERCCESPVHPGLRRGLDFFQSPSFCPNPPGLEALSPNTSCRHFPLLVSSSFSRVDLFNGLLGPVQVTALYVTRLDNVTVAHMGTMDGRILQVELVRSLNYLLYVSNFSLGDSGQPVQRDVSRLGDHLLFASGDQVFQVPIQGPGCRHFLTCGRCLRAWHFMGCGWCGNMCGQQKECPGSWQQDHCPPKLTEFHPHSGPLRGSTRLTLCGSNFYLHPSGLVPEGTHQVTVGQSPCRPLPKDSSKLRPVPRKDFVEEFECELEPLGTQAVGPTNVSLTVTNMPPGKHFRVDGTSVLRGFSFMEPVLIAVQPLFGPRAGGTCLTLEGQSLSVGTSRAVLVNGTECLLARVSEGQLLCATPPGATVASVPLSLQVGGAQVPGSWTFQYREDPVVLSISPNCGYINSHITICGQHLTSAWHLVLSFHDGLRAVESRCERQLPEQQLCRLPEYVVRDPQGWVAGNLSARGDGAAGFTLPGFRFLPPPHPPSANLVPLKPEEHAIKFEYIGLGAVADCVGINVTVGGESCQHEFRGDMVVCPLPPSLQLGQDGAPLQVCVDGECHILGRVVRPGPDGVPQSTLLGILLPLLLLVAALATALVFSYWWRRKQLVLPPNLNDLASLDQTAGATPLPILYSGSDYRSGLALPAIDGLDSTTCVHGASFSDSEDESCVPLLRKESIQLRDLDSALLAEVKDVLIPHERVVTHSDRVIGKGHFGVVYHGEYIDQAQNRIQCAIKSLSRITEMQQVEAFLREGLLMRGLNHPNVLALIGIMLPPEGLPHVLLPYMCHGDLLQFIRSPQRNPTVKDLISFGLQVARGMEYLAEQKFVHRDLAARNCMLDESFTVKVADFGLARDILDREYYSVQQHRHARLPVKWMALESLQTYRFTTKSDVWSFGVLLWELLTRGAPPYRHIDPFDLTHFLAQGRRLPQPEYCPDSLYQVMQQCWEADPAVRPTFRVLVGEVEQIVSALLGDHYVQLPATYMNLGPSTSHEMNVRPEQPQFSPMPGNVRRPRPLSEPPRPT

[9] = Inhibition of PKA at 10 uM by HTRF assay
[10] = target: Glycogen synthase kinase-3 beta (Homo sapiens) (UniProt P49841); assay: Inhibition of GSK3-beta at 10 uM by HTRF assay
[11] = target: Bcr/Abl fusion protein (Homo sapiens) (UniProt P00519+P11274); assay: Inhibition of bcr-Abl at 10 uM by HTRF assay; type: protein assay
Sequence of Bcr/Abl fusion protein (Homo sapiens) (P00519 whole entry, looked up, the tested form may be a part): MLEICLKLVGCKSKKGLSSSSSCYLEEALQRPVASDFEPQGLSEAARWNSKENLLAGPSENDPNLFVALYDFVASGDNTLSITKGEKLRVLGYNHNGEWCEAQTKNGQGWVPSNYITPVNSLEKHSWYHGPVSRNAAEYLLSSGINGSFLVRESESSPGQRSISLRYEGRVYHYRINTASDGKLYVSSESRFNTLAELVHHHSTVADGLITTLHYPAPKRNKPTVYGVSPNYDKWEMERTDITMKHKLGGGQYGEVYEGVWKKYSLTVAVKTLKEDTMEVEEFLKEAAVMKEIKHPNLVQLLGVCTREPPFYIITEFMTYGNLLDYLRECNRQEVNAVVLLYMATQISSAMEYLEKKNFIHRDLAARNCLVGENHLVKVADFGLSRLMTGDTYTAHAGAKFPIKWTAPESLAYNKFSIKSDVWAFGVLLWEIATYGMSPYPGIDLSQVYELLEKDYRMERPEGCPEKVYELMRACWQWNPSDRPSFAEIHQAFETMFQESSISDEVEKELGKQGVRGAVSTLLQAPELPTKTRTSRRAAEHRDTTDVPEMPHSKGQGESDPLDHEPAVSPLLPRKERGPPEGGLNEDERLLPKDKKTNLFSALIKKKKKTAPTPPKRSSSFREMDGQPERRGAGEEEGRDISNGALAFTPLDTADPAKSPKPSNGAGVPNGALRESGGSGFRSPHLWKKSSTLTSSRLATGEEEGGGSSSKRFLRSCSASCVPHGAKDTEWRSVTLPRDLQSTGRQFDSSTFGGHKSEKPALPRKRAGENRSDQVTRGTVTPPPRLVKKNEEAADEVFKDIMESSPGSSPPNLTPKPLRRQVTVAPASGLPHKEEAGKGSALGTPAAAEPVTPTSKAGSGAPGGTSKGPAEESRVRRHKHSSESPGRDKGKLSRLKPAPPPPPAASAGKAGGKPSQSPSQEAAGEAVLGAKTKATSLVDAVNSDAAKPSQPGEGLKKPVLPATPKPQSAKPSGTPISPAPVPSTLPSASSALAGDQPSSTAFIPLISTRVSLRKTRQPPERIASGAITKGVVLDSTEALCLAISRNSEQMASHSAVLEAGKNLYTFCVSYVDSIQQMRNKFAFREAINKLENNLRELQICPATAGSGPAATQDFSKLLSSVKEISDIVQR
Sequence of Bcr/Abl fusion protein (Homo sapiens) (P11274 whole entry, looked up, the tested form may be a part): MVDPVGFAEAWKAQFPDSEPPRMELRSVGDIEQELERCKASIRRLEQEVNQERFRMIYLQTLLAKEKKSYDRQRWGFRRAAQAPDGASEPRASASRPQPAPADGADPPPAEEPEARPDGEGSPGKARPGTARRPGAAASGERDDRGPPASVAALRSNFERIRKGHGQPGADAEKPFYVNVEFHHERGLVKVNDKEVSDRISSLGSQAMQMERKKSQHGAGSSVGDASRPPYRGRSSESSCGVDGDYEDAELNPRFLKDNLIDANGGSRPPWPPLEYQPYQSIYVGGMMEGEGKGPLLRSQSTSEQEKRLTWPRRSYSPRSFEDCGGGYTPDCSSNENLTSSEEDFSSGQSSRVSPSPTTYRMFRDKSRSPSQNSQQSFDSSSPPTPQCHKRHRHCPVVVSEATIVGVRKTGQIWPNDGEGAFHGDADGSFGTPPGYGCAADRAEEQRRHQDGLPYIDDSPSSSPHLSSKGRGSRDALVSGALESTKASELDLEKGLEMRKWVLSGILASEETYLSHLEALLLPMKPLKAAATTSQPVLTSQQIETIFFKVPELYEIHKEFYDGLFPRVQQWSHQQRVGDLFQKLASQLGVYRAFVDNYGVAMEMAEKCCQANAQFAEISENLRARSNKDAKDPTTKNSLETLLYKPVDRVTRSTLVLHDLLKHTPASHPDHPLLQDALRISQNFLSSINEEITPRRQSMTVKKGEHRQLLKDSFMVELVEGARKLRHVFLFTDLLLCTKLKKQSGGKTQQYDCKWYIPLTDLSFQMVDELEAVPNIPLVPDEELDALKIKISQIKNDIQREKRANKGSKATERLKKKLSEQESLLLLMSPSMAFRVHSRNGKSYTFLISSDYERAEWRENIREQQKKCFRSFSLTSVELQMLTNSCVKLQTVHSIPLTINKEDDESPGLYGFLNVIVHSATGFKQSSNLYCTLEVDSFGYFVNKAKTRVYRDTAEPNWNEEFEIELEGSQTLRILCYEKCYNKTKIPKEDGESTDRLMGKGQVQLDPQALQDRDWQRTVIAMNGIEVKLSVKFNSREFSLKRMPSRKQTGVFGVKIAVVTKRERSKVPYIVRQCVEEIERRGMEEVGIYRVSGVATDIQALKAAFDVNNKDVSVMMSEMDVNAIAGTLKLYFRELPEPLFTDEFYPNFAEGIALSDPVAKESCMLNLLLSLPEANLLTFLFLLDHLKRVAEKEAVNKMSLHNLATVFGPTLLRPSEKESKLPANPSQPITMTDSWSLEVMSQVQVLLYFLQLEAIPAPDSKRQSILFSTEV

[12] = target: Cyclin-dependent kinase 1 (Homo sapiens) (UniProt P06493); assay: Inhibition of CDK1 at 10 uM by HTRF assay
[13] = target: Cyclin-dependent kinase 2 (Homo sapiens) (UniProt P24941); assay: Inhibition of CDK2 at 10 uM by HTRF assay
[14] = target: Proto-oncogene tyrosine-protein kinase Src (Homo sapiens) (UniProt P12931); assay: Inhibition of Src at 10 uM by HTRF assay
[15] = Inhibition of Bcr-Abl T315 mutant at 10 uM by HTRF assay

Measured: inhibition

O=C(Nc1ccc(C(F)(F)F)cc1)c1nscc1NCc1ccccn1
< 30%: all assays above

O=C(Nc1ccc(Cl)cc1)c1nscc1NCc1ccncc1
< 30%: all assays above

Cc1cc(NC(=O)c2nscc2NCc2ccncc2)ccc1C(F)(F)F
< 30%: all assays above

CC(C)(C)c1ccc(NC(=O)c2nscc2NCc2ccncc2)cc1
< 30%: all assays above

O=C(Nc1ccc(OC(F)(F)F)cc1)c1nscc1NCc1ccncc1
< 30%: all assays above

Cc1ccc(NC(=O)c2nscc2NCc2ccncc2)c(F)c1
< 30%: all assays above

O=C(Nc1cccc(C(F)(F)F)c1)c1nscc1NCc1ccc(F)c(F)c1
< 30%: all assays above

O=C(Nc1ccc2[nH]ncc2c1)c1nscc1NCc1ccncc1
< 30%: all assays above

O=C(Nc1ccc(C(F)(F)F)cc1)c1nscc1NCc1cccnc1
< 30%: all assays above

O=C(Nc1ccc(C(F)(F)F)cc1)c1nscc1NCc1ccncc1
< 30%: all assays above

O=C(Nc1cccc(Br)c1)c1nscc1NCc1cnoc1
< 30%: all assays above

— ChEMBL document CHEMBL1136839, “3,4-Disubstituted isothiazoles: novel potent inhibitors of VEGF receptors 1 and 2” (Bioorg Med Chem Lett, 2009)
